Common to all, as to test: Radioisotope filter binding assay
Holding throughout (format): biochemical

One experiment addresses PI3K α (Homo sapiens (Human), UniProt P42336). Conditions: read-out: IC50 Activity Levels Against Various PI3K and mTor Kinases: PI3K α. The procedure: (§1) 3. Radioisotope Filter Binding Assay:
(§2) In this assay format, it directly detects the true product without the use of modified substrates or coupling enzymes (Uitdehaag, J. C., et al. Br. J. Pharmacol. 2012, 166, 858-876; Hastie, C. J., et al. Nat. Protoc. 2006, 1, 968-971) according to equation 1. Substrate+[γ−^33P]−ATP→^33P-Substrate+ADP eq 1
(§3) The protocol calls for test compound of the invention to be incubated with kinase, substrate, cofactors, and radio-isotope-labeled ATP (^33P-gamma-ATP). The reaction mixtures are then spotted onto filter papers which bind the radioisotope labeled catalytic product. Unreacted phosphate is removed via washing. The reagents used include base reaction buffer; 20 mM Hepes (pH 7.5), 10 mM MgCl2, 1 mM EGTA, 0.02% Brij35, 0.02 mg/ml BSA, 0.1 mM Na3VO4, 2 mM DTT, 1% DMSO. The reaction procedure include the following steps: (1) prepare indicated substrate in freshly prepared base reaction buffer, (2) deliver any required cofactors to the substrate solution above, (3) deliver indicated kinase into the substrate solution and gently mix, (4) deliver compounds in DMSO into the kinase reaction mixture by Acoustic technology (Echo550; nanoliter range), incubate for 20 minutes at room temperature, (5) deliver ^33P-ATP (specific activity 10 μCi/μL) into the reaction mixture to initiate the reaction, (6) incubate kinase reaction for 2 hours at room temperature, (7) reactions are spotted onto P81 ion exchange paper, (8) detect kinase activity by filter-binding method.

In a further experiment the target is PI3K β (Homo sapiens (Human), UniProt P42338). The settings on record: read-out: IC50 Activity Levels Against Various PI3K and mTor Kinases: PI3K β. The procedure: as §1, §2, §3
Sequence of PI3K β (P42338 whole entry): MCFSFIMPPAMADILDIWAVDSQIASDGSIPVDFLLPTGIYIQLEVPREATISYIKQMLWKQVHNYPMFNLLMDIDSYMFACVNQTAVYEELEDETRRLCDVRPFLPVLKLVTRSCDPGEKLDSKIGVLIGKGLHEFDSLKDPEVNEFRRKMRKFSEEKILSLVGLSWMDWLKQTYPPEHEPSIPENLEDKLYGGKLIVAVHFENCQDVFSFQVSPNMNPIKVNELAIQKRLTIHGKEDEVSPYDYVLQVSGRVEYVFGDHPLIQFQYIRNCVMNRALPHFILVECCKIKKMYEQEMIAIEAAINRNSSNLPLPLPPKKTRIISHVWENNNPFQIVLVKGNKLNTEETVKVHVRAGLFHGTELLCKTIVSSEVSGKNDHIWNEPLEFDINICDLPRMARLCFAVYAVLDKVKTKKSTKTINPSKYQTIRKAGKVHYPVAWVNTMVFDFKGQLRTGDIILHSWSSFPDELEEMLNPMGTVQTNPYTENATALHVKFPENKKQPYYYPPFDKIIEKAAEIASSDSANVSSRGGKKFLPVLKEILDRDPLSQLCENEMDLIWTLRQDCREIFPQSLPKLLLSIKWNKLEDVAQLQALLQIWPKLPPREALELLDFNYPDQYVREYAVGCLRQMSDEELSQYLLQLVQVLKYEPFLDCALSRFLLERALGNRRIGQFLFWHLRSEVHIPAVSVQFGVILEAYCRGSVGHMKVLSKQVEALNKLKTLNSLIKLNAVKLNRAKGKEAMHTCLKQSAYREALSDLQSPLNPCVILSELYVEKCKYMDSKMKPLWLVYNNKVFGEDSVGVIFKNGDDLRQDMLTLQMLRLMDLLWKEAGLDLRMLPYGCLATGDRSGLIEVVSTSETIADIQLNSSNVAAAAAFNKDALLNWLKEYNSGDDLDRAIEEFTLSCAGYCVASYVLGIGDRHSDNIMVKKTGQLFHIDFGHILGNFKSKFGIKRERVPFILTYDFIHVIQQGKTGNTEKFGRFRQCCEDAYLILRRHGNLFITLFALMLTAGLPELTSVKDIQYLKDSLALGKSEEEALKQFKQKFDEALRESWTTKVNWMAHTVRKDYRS
Sequence of PI3K β (P27986 whole entry partner): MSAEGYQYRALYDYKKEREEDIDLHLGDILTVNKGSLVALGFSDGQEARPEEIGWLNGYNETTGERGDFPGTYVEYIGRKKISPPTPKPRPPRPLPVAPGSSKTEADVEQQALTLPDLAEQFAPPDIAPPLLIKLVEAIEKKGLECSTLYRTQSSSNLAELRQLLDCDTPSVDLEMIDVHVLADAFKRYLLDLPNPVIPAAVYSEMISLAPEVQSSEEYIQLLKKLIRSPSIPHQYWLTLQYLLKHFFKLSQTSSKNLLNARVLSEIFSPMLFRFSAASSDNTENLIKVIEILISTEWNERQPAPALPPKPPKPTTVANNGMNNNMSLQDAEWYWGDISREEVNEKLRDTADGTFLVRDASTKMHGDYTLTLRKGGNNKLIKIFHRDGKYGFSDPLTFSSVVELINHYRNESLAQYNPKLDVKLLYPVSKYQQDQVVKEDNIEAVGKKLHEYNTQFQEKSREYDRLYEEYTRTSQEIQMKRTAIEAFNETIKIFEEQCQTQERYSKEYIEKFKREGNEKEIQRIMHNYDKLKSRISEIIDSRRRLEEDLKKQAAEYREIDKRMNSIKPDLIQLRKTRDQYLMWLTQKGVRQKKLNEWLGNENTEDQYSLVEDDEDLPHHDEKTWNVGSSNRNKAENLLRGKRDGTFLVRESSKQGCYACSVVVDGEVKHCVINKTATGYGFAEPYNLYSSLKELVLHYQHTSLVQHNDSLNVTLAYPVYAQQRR
A further experiment deals with PI3K γ (Homo sapiens (Human), UniProt P48736). Conditions: read-out: IC50 Activity Levels Against Various PI3K and mTor Kinases: PI3K γ. The procedure:
as §1, §2, §3

The target in a further experiment is mTor/FRAP1 (Homo sapiens (Human), UniProt P42345). Conditions: read-out: IC50 Activity Levels Against Various PI3K and mTor Kinases: mTor/FRAP1. As for the experimental part:
as §1, §2, §3

Sequence of PI3K α (P42336 whole entry): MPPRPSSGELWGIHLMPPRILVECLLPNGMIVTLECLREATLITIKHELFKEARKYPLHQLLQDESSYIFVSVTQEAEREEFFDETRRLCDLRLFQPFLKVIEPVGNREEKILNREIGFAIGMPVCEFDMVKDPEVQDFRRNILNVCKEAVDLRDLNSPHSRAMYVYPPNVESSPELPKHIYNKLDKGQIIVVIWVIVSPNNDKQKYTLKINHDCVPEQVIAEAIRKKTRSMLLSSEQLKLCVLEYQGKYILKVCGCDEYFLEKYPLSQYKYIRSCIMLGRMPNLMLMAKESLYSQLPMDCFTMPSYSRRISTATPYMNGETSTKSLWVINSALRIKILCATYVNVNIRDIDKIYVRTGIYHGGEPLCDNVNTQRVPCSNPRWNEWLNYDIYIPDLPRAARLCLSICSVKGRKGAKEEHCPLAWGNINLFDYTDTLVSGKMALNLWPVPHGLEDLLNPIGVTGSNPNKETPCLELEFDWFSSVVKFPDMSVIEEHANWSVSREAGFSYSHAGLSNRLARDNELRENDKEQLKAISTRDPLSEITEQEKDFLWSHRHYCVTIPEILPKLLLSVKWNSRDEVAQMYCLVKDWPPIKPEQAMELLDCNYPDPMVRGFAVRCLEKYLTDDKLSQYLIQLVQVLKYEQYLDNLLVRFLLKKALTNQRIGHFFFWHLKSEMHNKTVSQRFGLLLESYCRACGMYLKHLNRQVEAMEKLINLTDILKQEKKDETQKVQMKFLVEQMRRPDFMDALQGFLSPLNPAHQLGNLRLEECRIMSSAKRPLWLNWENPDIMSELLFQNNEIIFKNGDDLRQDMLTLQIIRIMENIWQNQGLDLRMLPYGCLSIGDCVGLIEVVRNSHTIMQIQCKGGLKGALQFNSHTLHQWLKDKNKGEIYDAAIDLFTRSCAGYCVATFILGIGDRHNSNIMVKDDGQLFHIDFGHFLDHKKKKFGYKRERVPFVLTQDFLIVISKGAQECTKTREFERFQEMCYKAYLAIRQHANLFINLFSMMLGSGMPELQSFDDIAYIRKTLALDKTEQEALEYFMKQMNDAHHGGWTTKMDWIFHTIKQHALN
Sequence of PI3K α (P27986 whole entry partner): as the sequence (P27986 whole entry partner) above
Sequence of PI3K γ (P48736 whole entry): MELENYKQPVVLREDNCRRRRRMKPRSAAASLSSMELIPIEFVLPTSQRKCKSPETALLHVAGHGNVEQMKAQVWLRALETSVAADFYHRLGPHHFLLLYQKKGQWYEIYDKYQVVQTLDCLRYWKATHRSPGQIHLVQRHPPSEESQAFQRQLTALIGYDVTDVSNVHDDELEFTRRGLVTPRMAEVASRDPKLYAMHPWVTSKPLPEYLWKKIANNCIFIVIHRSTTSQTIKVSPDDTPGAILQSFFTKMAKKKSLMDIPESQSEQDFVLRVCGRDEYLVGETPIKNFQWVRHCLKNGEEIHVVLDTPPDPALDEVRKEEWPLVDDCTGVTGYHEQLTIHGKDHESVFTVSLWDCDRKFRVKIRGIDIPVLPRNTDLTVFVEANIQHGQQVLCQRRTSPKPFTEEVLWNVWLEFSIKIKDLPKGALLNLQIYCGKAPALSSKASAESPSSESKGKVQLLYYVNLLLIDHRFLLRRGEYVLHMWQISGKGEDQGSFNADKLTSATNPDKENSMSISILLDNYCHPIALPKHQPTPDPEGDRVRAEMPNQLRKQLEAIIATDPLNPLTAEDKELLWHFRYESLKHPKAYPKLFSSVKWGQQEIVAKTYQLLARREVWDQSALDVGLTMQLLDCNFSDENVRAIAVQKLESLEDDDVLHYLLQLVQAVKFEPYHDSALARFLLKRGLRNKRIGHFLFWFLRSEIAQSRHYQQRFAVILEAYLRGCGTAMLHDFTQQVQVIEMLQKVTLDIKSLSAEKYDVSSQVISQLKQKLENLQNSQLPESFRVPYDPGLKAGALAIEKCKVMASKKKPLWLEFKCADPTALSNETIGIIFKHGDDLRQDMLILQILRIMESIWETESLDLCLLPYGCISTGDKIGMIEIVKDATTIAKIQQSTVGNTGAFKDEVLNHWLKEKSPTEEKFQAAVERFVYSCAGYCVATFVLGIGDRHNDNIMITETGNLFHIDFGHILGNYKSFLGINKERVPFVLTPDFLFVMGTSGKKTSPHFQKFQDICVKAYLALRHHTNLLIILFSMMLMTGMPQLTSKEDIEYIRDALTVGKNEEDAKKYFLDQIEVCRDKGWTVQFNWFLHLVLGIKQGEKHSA

As to `Nc1nc2cc(-c3nn(C[C@@H]4SSC[C@H]4OC(=O)c4ccccc4)c4ncnc(N)c34)ccc2o1` (relative stereo) [Example 55, trans 3-((4-Amino-3-(2-aminobenzo[d]oxazol-5-yl)-1H-pyrazolo[3,4-d]pyrimidin-1-yl)methyl)-1,2-dithiolan-4-yl benzoate], the IC50 lay in the range of 100 to 999 nM on PI3K α, 1000 to 10000 nM on PI3K β, 1000 to 10000 nM at PI3K γ and 5 to 99 nM on mTor/FRAP1.

(Values after patent US10844038B2, “1,2-dithiolane compounds useful in neuroprotection, autoimmune and cancer diseases and conditions” (SABILA BIOSCIENCES LLC, priority 2016, dated 2020).)
